In article PMC3759666, “Post-translational modification and conformational state of Heat Shock Protein 90 differentially affect binding of chemically diverse small molecule inhibitors” (Oncotarget, 2013):

Key:
yeast Hsp90 = target: T1, yeast Hsp90 (Saccharomyces cerevisiae, UniProt P02829); assay: DMS cross-linking of N domain dimers; p23 binding by fluorescence anisotropy; format: biochemical
T1 construct: gene HSP82; purified yeast Hsp90

yeast Hsp90 (Hsp82) [1] = target: T2, yeast Hsp90 (Hsp82) (Saccharomyces cerevisiae, UniProt P02829); assay: PU-bead capture from yeast lysate; format: cell-based
T2 construct: wild-type NMC; coilNMC also measured

yeast Hsp90 (Hsp82) [2] = target: T2, yeast Hsp90 (Hsp82); assay: BODIPY-GA anisotropy/displacement; GA-bead capture from yeast lysate; format: binding
Hsp90β = target: T3, Hsp90β (Homo sapiens, UniProt P08238)
T3 construct: gene HSP90AB1
T3 sequence (P08238 2-724): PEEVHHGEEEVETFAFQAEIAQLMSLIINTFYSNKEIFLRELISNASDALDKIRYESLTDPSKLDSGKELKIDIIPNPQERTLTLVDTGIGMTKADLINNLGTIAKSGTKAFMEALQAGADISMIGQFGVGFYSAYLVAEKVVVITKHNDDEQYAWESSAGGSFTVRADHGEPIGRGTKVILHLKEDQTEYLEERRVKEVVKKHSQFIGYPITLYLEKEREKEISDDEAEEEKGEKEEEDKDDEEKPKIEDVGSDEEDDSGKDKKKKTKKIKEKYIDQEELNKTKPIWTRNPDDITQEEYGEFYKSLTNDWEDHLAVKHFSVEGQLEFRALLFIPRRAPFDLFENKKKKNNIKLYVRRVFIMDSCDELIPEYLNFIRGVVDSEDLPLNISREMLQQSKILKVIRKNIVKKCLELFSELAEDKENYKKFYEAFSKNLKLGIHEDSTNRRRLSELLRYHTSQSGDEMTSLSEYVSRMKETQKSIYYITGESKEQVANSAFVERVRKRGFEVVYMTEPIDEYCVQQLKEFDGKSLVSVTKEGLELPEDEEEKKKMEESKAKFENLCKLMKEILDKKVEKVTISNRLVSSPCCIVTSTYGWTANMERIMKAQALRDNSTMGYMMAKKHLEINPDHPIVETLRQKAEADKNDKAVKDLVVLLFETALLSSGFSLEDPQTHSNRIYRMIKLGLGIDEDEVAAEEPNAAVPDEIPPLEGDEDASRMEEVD

T2 sequence (P02829 whole entry): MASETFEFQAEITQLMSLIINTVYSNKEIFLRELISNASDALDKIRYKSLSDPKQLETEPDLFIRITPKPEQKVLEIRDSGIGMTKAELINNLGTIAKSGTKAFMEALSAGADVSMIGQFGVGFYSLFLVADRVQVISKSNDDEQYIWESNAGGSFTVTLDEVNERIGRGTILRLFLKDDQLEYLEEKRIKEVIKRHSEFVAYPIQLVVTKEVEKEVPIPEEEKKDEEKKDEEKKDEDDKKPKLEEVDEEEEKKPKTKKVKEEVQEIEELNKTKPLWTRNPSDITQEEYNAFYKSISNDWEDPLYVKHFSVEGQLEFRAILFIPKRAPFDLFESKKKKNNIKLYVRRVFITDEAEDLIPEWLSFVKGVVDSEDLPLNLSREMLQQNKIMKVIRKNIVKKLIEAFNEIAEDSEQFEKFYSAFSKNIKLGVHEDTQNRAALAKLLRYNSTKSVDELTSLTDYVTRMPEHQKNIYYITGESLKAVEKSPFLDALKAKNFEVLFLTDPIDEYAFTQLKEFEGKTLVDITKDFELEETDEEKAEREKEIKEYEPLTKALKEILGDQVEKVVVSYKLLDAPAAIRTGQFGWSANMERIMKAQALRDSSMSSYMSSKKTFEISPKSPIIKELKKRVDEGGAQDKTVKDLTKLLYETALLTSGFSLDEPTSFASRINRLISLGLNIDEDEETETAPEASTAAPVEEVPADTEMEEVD
T1 sequence (P02829 whole entry): as above

For `Nc1ncnc2c1ncn2[C@@H]1O[C@H](CO[P@](=O)(O)O[P@](=O)(O)NP(=O)(O)O)[C@@H](O)[C@H]1O` [AMP-PNP], the “DMS cross-linking of N domain dimers; p23 binding by fluorescence anisotropy” value (yeast Hsp90) was “Only AMP-PNP promoted significant N domain dimerization (Figure 2F)”.
In the case of `CC(C)NCCCn1c(Sc2cc3c(cc2I)OCO3)nc2c(N)ncnc21` [PU, PU-H71], the “PU-bead capture from yeast lysate” value (yeast Hsp90 (Hsp82) [1]) is reported as “both GA- and PU-beads efficiently isolated coiled-coil Hsp90 from yeast lysates, compared to wild-type Hsp90”.
In the case of `COC1=C2C[C@@H](C)C[C@H](OC)[C@H](O)[C@@H](C)/C=C(\C)[C@H](OC(N)=O)[C@@H](OC)/C=C\C=C(/C)C(=O)NC(=CC1=O)C2=O` [GA, geldanamycin], the “BODIPY-GA anisotropy/displacement; GA-bead capture from yeast lysate” value (yeast Hsp90 (Hsp82) [2]) is reported as “Coiled-coil yeast Hsp90 (coilNMC) has a similar affinity for GA as wild-type Hsp90 (NMC)” and the “GA-agarose capture of Flag-Hsp90β from 293-H cell lysate” value (Hsp90β) is reported as “GA-beads bound the non-phosphorylatable mutants (Hsp90α-Y197F and Hsp90β-Y192F) similarly to wild-type Hsp90”.
